Assay results: the supplement of paper PMC7661543
± gives the standard deviation of the averaged measurements.

How the values were obtained:
Test in all cases: relative cell number vs DMSO control (72 h) (% of DMSO); higher = less growth inhibition (more cells)
Details in all cases: sgRNA knockout: sgNT
BT-20 = system: BT-20
Method: (§1)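 QMAP-Seq: a pool of 5 breast cancer cell lines (ZR-75-1, SKBR3, HCC-38, MDA-MB-231, BT-20), each carrying 12 doxycycline-inducible Cas9 sgRNA perturbations (11 knockouts plus non-targeting sgNT), was treated with compounds for 72 h at four 10-fold doses (10 nM-10 uM or 1 nM-1 uM range). Barcodes were amplified and sequenced, and cell number was interpolated from 293T spike-in standard curves. The result is expressed as % of the median of DMSO wells. Two biological replicates.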

HCC-38 = system: HCC-38
Method: as §1

SKBR3 = system: SKBR3
Method: as §1

ZR-75-1 = system: ZR-75-1
Method: as §1

MDA-MB-231 = system: MDA-MB-231
Method: as §1

Compound | relative cell number (BT-20; 1 nM) | relative cell number (BT-20; 10 nM) | relative cell number (BT-20; 100 nM) | relative cell number (BT-20; 1000 nM) | relative cell number (HCC-38; 1 nM) | relative cell number (HCC-38; 10 nM) | relative cell number (HCC-38; 100 nM) | relative cell number (HCC-38; 1000 nM) | relative cell number (SKBR3; 1 nM) | relative cell number (SKBR3; 10 nM) | relative cell number (SKBR3; 100 nM) | relative cell number (SKBR3; 1000 nM) | relative cell number (ZR-75-1; 1 nM) | relative cell number (ZR-75-1; 10 nM) | relative cell number (ZR-75-1; 100 nM) | relative cell number (ZR-75-1; 1000 nM) | relative cell number (MDA-MB-231; 1 nM) | relative cell number (MDA-MB-231; 10 nM) | relative cell number (MDA-MB-231; 100 nM) | relative cell number (MDA-MB-231; 1000 nM) | relative cell number (BT-20; 10000 nM) | relative cell number (HCC-38; 10000 nM) | relative cell number (SKBR3; 10000 nM) | relative cell number (ZR-75-1; 10000 nM) | relative cell number (MDA-MB-231; 10000 nM)
CCc1c2c(nc3ccc(O)cc13)-c1cc3c(c(=O)n1C2)COC(=O)[C@]3(O)CC [SN38] | 90.7 ± 2 | 77.6 ± 9.2 | 45.3 ± 2.9 | 31.9 ± 5.3 | 97.2 ± 7.5 | 35.7 ± 5.1 | 19.6 ± 4.8 | 14.5 ± 6 | 67.7 ± 30 | 35 ± 16 | 23.2 ± 7.1 | 25 ± 0.91 | 57.1 ± 2.3 | 39.7 ± 5.6 | 36.2 ± 4.4 | 25.4 ± 4.1 | 111 ± 8.8 | 38 ± 19 | 21.8 ± 3.3 | 19.5 ± 2 |  |  |  |  | 
O=C(CCc1ccc(O)cc1)c1c(O)cc(O)cc1O [Phloretin] |  | 102 ± 36 | 105 ± 16 | 96.7 ± 8.2 |  | 104 ± 10 | 105 ± 7 | 101 ± 13 |  | 76.3 ± 4.5 | 76.5 ± 1 | 100 ± 1.3 |  | 91.1 ± 42 | 100 ± 55 | 74 ± 11 |  | 83.2 ± 2.8 | 103 ± 20 | 127 ± 16 | 107 ± 15 | 113 ± 11 | 90.5 ± 3.9 | 112 ± 13 | 106.6 ± 0.71
c1ccc2c(Oc3nc(Nc4ccc(N5CCOCC5)cc4)c4ncn(C5CCCCC5)c4n3)cccc2c1 [Purmorphamine] |  | 84.2 ± 13 | 99.65 ± 0.55 | 85.43 ± 0.29 |  | 99.2 ± 3.6 | 95.6 ± 7.1 | 90.2 ± 1.9 |  | 96.9 ± 34 | 124 ± 43 | 75.9 ± 29 |  | 97.6 ± 49 | 84.6 ± 39 | 92.7 ± 11 |  | 95.7 ± 9.6 | 75.6 ± 12 | 97 ± 66 | 79.3 ± 11 | 71.8 ± 6.4 | 51.1 ± 11 | 52.3 ± 1.9 | 52 ± 8.8
C[C@@H]1CN(CC(=O)Nc2ccc3c(c2)Cc2cccc(-c4cc(=O)cc(N5CCOCC5)o4)c2S3)C[C@H](C)O1 |  | 73.7 ± 24 | 119 ± 3.5 | 108 ± 8.4 |  | 89.9 ± 3.7 | 110 ± 4.4 | 76.9 ± 3.3 |  | 86.5 ± 26 | 95.9 ± 33 | 87.7 ± 36 |  | 95.6 ± 6 | 92.7 ± 26 | 80.8 ± 9.4 |  | 111 ± 4.9 | 85.1 ± 5.2 | 95.9 ± 20 | 62.4 ± 3.5 | 64.3 ± 9.2 | 33.6 ± 4.6 | 38.7 ± 11 | 59.4 ± 6.4
CCCc1nn(C)c2c(=O)[nH]c(-c3cc(S(=O)(=O)N4CCN(C)CC4)ccc3OCC)nc12 [Sildenafil] |  | 95.7 ± 16 | 110 ± 2.7 | 95.2 ± 0.97 |  | 89.5 ± 15 | 92.7 ± 4.1 | 103 ± 9.7 |  | 82.23 ± 0.8 | 91.7 ± 25 | 62.7 ± 0.37 |  | 105 ± 9.5 | 117 ± 58 | 86.3 ± 26 |  | 114 ± 8.2 | 85 ± 15 | 97.7 ± 22 | 107 ± 3.9 | 124 ± 18 | 68.1 ± 16 | 57.6 ± 2.1 | 57.1 ± 8.9
CC[C@@]1(O)C(=O)OCc2c1cc1n(c2=O)Cc2cc3c(CN(C)C)c(O)ccc3nc2-1 [Topotecan] |  | 73.1 ± 10 | 49 ± 8.1 | 30.9 ± 2.8 |  | 52.1 ± 9.8 | 20.9 ± 0.31 | 12.1 ± 1.6 |  | 58.7 ± 5.9 | 34.7 ± 19 | 12.1 ± 2.9 |  | 65.9 ± 3.4 | 37 ± 5.1 | 14 ± 5.7 |  | 85.1 ± 59 | 26 ± 0.82 | 16.9 ± 1.2 | 12.1 ± 3.9 | 8.742 ± 0.069 | 6.08 ± 3.9 | 11.8 ± 9.3 | 8.21 ± 3.3
COc1cc(-n2c(=S)[nH]c3ccccc3c2=O)c(Cl)cc1Cl [Mdivi1] |  | 76.5 ± 8.6 | 98.8 ± 5.6 | 83.6 ± 2.9 |  | 95.3 ± 11 | 93.4 ± 13 | 100 ± 10 |  | 76 ± 18 | 104 ± 6.3 | 60 ± 1.5 |  | 135 ± 44 | 77.9 ± 7.1 | 80.6 ± 2.8 |  | 93.3 ± 18 | 84.9 ± 27 | 94.7 ± 11 | 84 ± 3.7 | 83.1 ± 20 | 44.2 ± 5.5 | 41.5 ± 26 | 50.1 ± 5.6
CO[C@H]1C[C@@H]2CC[C@@H](C)[C@@](O)(O2)C(=O)C(=O)N2CCCC[C@H]2C(=O)O[C@H]([C@H](C)C[C@@H]2CC[C@@H](OCCO)[C@H](OC)C2)CC(=O)[C@H](C)/C=C(\C)[C@@H](O)[C@@H](OC)C(=O)[C@H](C)C[C@H](C)/C=C/C=C/C=C/1C [Everolimus] | 56 ± 3.1 | 63.7 ± 4.2 | 49.5 ± 6.8 | 71.5 ± 5.7 | 56.5 ± 4.8 | 59.2 ± 2.3 | 64.7 ± 2.1 | 59.7 ± 3.3 | 55.6 ± 18 | 67.6 ± 1.8 | 57.5 ± 21 | 70.7 ± 0.84 | 69.7 ± 18 | 66.8 ± 8.4 | 58 ± 11 | 42.7 ± 18 | 76.3 ± 15 | 50.9 ± 14 | 87.5 ± 11 | 88.3 ± 6.2 |  |  |  |  | 
Cc1cc2c(F)c(Oc3ncnn4cc(OC[C@@H](C)O)c(C)c34)ccc2[nH]1 [Brivanib] |  | 119 ± 35 | 78.5 ± 1.6 | 109 ± 18 |  | 96.9 ± 6.4 | 84.3 ± 9.9 | 96.7 ± 2.2 |  | 112 ± 6.1 | 61.5 ± 12 | 82.4 ± 11 |  | 86.5 ± 18 | 66.1 ± 24 | 111 ± 19 |  | 107 ± 31 | 106 ± 25 | 122 ± 9.6 | 93.9 ± 4 | 84.119 ± 0.073 | 60.9 ± 28 | 53.5 ± 20 | 58.7 ± 9.5
Cc1cn(-c2cc(NC(=O)c3ccc(C)c(Nc4nccc(-c5cccnc5)n4)c3)cc(C(F)(F)F)c2)cn1 [Nilotinib] |  | 99.6 ± 18 | 87.1 ± 14 | 94.2 ± 22 |  | 93.4 ± 2.5 | 102 ± 16 | 98.8 ± 11 |  | 79.5 ± 24 | 88.7 ± 0.9 | 98.3 ± 25 |  | 75.2 ± 1.9 | 94.4 ± 29 | 107 ± 2.8 |  | 80.9 ± 6.4 | 118 ± 19 | 88.1 ± 1.5 | 63.1 ± 6.3 | 93.7 ± 30 | 13.8 ± 12 | 35.1 ± 20 | 63.5 ± 28
Cc1sc2c(c1C)C(c1ccc(Cl)cc1)=N[C@@H](CC(=O)OC(C)(C)C)c1nnc(C)n1-2 [(+)-JQ1] |  | 99.3 ± 17 | 108 ± 1.9 | 108 ± 4.7 |  | 104 ± 4.2 | 112 ± 33 | 93.2 ± 1.9 |  | 102 ± 17 | 119 ± 21 | 91.5 ± 2.7 |  | 98.5 ± 22 | 122 ± 50 | 86.2 ± 21 |  | 109 ± 30 | 99.7 ± 4 | 105.4 ± 0.35 | 93.5 ± 4 | 65.3 ± 1.1 | 62.6 ± 3.5 | 49.4 ± 1.2 | 50.7 ± 18
c1cc(Nc2cc(C3CC3)[nH]n2)nc(Nc2ccc3nc[nH]c3c2)n1 [APY29] |  | 120 ± 4.3 | 79.9 ± 16 | 88.3 ± 10 |  | 91.3 ± 16 | 64.3 ± 3.1 | 26.6 ± 2.5 |  | 110 ± 9 | 40.6 ± 1.2 | 12.5 ± 6.6 |  | 119 ± 26 | 74 ± 39 | 23.6 ± 1.6 |  | 109 ± 5.4 | 52.8 ± 4.2 | 17.1 ± 3.7 | 40.7 ± 5.9 | 23.3 ± 0.34 | 5.99 ± 1.9 | 10.7 ± 9.5 | 10.7 ± 3.8
